# Test results reported in patent US12496302B2, “Compositions and methods for the treatment and diagnosis of cancer” (The General Hospital Corporation, priority 2020, dated 2025).
# Legend:
# Assay type in all cases: cell-based
# [1] = tested on: cancer cell lines (HST578, MBAMD231, HCC1937, HCC1954); test: Cell survival (colony) assay with TRDMT1i alone, Example 19
# Protocol: FIGS. 14A-14C show TRDMT1i alone reduce cancer cell survival in a dose-dependent manner. (FIG. 14A) Survival rate of HR proficient (HR+) HST578 cancer cells with and without siBRCA1 and/or TRDMT1i YW-1842 at indicated dose. The survival rate of these cells was analyzed (n=3, Mean±SD). (FIG. 14B) Survival rate of MBAMD231 (HR+) and HCC1937 (HRD) cells. The survival rate of these cells was analyzed (n=3, Mean±SD). (FIG. 14C) Cell survival rate in different cancer cell lines via colony-forming assay with the treatment of Imatinib at indicated dose (n=3, mean+/−S.D.). Cell lines are listed in order with the expression level from SYCP2high to SYCP2low.
# HCC1500, HCC1954, BT549, MCF7 and MDAMB468 were cultured in Roswell Park Memorial Institute (RPMI) 1640 Medium (Sigma, R8758) with 10% (vol/vol) fetal bovine serum (FBS, XY Cell Culture, FBS-500) at 37° C., 5% CO2. siBRCA1 (L-003461-00, Dharmacon) was transfected with Lipofectamine RNAiMax (Invitrogen; Carlsbad, CA, USA). PARPi Olaparib (AZD2281/Ku-0059436, Sellekchem, S1060) and Pol theta inhibitor Novobiocin (Sigma) were used.
# Cells were seeded in each 6-cm dish and cultured as described above. They were treated with drugs with indicated dose in medium after seeding. After 7-10 days, colonies were fixed and stained with 0.3% crystal violet in methanol, and the number of colonies was counted manually.
# γ-H2AX foci = γ-H2AX foci clearance after damage; settings: 2.5 μM/L YW-1842
# Protocol: FIGS. 6F-6G show TRDMT1 inhibitor YW-1842 delays the repair of DSBs at the transcribed genome. (FIG. 6F) U2OS or MCF7 cells were treated with or without compound YW-1842 at the indicated concentration. The survival rate of these cells was shown (n=3, Mean±SD). (FIG. 6G) SCE WT cells were transfected with TA-KR and were cultured with 2.5 μM YW-1842 or not for 6 hours, γ-H2AX (n=3, 50 cells per replicated, Mean±SD) were stained and quantified.
# Cells for immunofluorescence observation were fixed in 4% PFA (Affymetrix, 19943 1 LT) at room temperature for 15 min and further treated with 0.2% triton for 10 min. They were then blocked by 3% BSA (SIGMA, A-7030) at room temperature for 1 h. Primary antibody for RAD51 (ab63801, Abcam, 1:200)), RAD52 (sc-365341, Santa Cruz, CA, USA, 1:500), TRIM28 (ab10484, Abcam, 1:500), γH2AX ser139 (JBW301, 05-636, EMD Millipore, 1:200), were incubated with cells at 4° C. overnight. After washing with 0.05% PBS-Tween (PBST), the cells were incubated with secondary antibody for 1 h at room temperature.
# [2] = tested on: MCF-7, HCC1954, and HCC1937 cells; test: Cell survival assay, YW-1842 combined with DNA damaging agents, IR or H2O2
# Protocol: FIGS. 6A-6E show TRDMT1 Inhibitors specifically sensitizes cells to DNA damage agents. (FIG. 6A) SCE WT cells were transfected with TA-KR and were cultured with 2.5 μM/L, compound YW-1842 or not for 6 hours, m^5C (n=3, 50 cells per replicated, Mean±SD) was stained and quantified. DR-GFP (FIG. 6B) or EJ5-GFP (FIG. 6C) cells were pre-treated with 2.5 μM/L, compound YW-1842 for 6 h or TRDMT1 siRNA for 48 h, or DMSO. Then the cells were transfected with NLS-I-SceI plasmid to induce DSB. The efficiency of HR (FIG. 6B) or NHEJ (FIG. 6C) was analyzed by flow-cytometry (n=3, Mean±SD). (FIG. 6D) After seeding, MCF-7, HCC1954, and HCC1937 cells were pre-treated with or without 2.5 μM/L compound YW-1842 for 6 h, then cultured with chemotherapy drugs (1 μM/L, Cisplatin; 1 μM/L ATRi AZ20; 10 μM/L, ATMi KU55933; 1 μM/L, PARPi Olaparib for 10 days. The survival rate of these cells was analyzed (n=3, Mean±SD). (FIG. 6E) TRDMT1 KO U2OS cells were transfected with GFP-TRDMT1^WT or GFP-TRDMT1^G155V with or without 2.5 μM/L, compound YW-1842, the survival rate of these cells after IR or Cisplatin was shown (n=3, Mean±SD).
# MCF-7, HCC1954, and HCC1937 cells were pre-treated with or without TRDMT1 inhibitor YW-1842 (2.5 μM) for 6 hrs, then the cells were exposed to IR or H2O2, and cultured for 7-14 days. The survival rate of these cells was analyzed (n=3, Mean±SD)
# Approximately 500 U2OS/TRDMT1 KO U2OS/MCF-7/HCC1954/HCC1937 cells and TRDMT1 siRNA or GFP-TRDMT1 WT/G155V/K251R transfected cells were seeded in 6 cm dish with or without TRDMT1 inhibitors (2.5 μM/L). 6 hrs after seeding, cells were exposed to cisplatin (1134357, Sigma, 1 μM/L), ATMi (KU55933, C9867, Sigma, 10 μM/L), ATRi (AZ20, S7050, Selleck, 1 μM/L) or PARPi (Olaparib, AZD2461, Sigma, 1 μM/L) at indicated concentration or ionizing radiation (IR). After 7-14 days, colonies were fixed and stained with 0.3% crystal violet in methanol, and the number of colonies was counted manually.
structure (smiles),measurement,setting,value
"COc1cc2nc(-n3cc(-c4ccc(S(C)(=O)=O)cc4)cn3)nc(-c3ccsc3)c2cc1OC [YW-1842, 6,7-dimethoxy-2-(4-(4-(methylsulfonyl)phenyl)-1H-pyrazol-1-yl)-4-(thiophen-3-yl)quinazoline]",cell killing of HCC1954,"[1]; HCC1954 (HRD, high SYCP2)",efficiently killed HCC1954
same,"cell survival, TRDMT1i alone",[1]; HR-proficient HST578 cells,kills HR-proficient cancer cells HST578 in a dose-dependent manner
same,TRDMT1i sensitivity with BRCA1 knockdown,[1]; HST578 cells with siBRCA1,significantly increased
same,cell killing across cancer cell lines by SYCP2 level and HR status,[1]; cell lines ordered SYCP2high to SYCP2low,killed SYCP2-high cancer cell lines and HR deficient cells the most efficiently
same,DNA repair efficiency (clearance of γ-H2AX foci after IR),γ-H2AX foci,delayed clearance of γ-H2AX foci
same,survival rate in combination with H2O2 compared to DMSO,"[2]; 2.5 μM, combined with H2O2",decreased the survival rate of all the three cell lines
same,sensitivity to IR in combination,"[2]; 2.5 μM, combined with IR",clear sensitivity enhancement
same,"sensitization to DNA damaging agents (Cisplatin, ATRi AZ20, ATMi KU55933, PARPi Olaparib) compared to single treatment",[2]; 2.5 μM/L pre-treatment 6 h,sensitizes the cells
same,synergy with PARPi Olaparib,"[2]; YW-1842 2.5 μM, Olaparib 1 μM, HCC 1954 cell lines",strong synergy
